Laboratory results published in patent US8361998B2, “Compounds and their use as IKACh blockers” (AstraZeneca AB, priority 2010, dated 2013).
Where two headings read alike, the source gives them in different places.

Target: T1, human cardiac ion channel proteins hKir3.1/Kir3.4 (Homo sapiens, UniProt P48544+P48549)
T1 construct: expressed in transfected cells
T1 sequence (P48549 1-501): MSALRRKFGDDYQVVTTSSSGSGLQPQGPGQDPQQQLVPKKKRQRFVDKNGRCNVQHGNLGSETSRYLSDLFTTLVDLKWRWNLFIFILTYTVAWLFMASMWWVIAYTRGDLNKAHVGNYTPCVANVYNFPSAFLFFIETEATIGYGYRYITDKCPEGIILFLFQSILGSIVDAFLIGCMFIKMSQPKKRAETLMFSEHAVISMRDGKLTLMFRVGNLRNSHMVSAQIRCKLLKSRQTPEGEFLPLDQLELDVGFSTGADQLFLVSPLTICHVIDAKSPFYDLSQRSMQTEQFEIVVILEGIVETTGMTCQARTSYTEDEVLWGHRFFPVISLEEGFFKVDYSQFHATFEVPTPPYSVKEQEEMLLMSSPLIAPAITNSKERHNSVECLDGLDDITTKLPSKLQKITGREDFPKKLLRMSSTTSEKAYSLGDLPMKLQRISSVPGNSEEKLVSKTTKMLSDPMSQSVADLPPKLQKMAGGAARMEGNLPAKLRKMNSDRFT
T1 sequence (P48544 1-419): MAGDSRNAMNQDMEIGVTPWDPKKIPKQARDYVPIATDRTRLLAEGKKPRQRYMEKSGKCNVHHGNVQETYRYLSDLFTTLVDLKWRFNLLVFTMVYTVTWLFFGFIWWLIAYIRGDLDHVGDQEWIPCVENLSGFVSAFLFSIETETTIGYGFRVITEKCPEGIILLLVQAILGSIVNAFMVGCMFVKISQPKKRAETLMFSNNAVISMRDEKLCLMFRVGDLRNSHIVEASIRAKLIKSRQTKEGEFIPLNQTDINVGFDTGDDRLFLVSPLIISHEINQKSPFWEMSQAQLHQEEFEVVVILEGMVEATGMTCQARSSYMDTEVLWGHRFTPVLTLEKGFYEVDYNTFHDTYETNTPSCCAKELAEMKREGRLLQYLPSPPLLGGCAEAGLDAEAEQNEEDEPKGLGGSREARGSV
Assay: Atomic Absorption Screening (AAS) Rb efflux assay of hKir3.1/Kir3.4 block, carbachol/high K+ stimulated, 10-pt or 7-pt CR
Assay type: cell-based
From the text: Human KCNJ3 encoding Kir3.1 (Genbank acc. No. NM_002239) was inserted between EcoRI and NotI in the pIRESneo3 vector (Clontech Laboratories, Inc. CA, USA). Human KCNJ5 encoding Kir3.4 (Genbank Acc. No. BC069482) was inserted between EcoR1 and Not1 in the pIRESpuro3 vector (Clontech Laboratories, Inc. CA, USA). A Kozak sequence (GCCACC) was introduced before the start codon ATG of both constructs. Chinese Hamster Ovary K1, CHO-FLP/IN, cells (Invitrogen Corporation, Paisley, UK) were transfected simultaneously using Lipofectamine 2000 reagent (Invitrogen Corporation, Paisley, UK). Geneticin 600 μg/mL (Invitrogen Corporation, Paisley, UK) and puromycin 3 μg/mL (BD Bioscience) were added to the cell culture medium 3 days after transfection. Two weeks after transfection, colonies had appeared and were manually picked and sorted to one cell per well in a 96-well plate. Cells were then tested for Kir3.1 and Kir3.4 expression using membrane potential assay, Western Blot and Immunocytochemistry. […] The cell line was re-sorted by flow cytometry and resulting clones were assayed electrophysiologically using IonWorks (Molecular Devices) and later validated on the Q-Patch (Sophion A/S).
The stable cell line was cultured in DMEM/F12 with Glutamax 1 (Invitrogen Corporation, Paisley, UK), supplemented with foetal bovine serum 10%, puromycin 3 μg/mL, hygromycin 300 μg/mL and geneticin 600 μg/mL (Invitrogen Corporation, Paisley, UK). Care was taken not to seed cells at too low density and cells were passaged at approximately 70-80% confluency. Cells used for patch-clamp experiments were prepared by washing using PBS (—Mg, —Ca^2+), 2 times, detached using Accutase (Sigma). For Q-Patch measurements, storage medium was prepared fresh by adding 1.25 mL of 1M Hepes (GibcoBRL) to 50 mL CHO-SFM II medium (GibcoBRL) and detached cells were diluted to 2 million cells/mL in this medium. Frozen (Cryopreserved) cells were used for Atomic Absorption Screening (AAS) and plated poly-D-lysine 384-well plates (Greiner) at a density of 11,000-13,000 cells/well, the day before assay.
The blocking effects of compounds on the human cardiac ion channel proteins hKir3.1/Kir3.4 were assessed in CHO-K1 cells stably expressing the channel proteins using Atomic Absorption Screening (AAS). Cells were washed and then loaded with 25 μL Rb-loading buffer for three hours at 37° C. After that, the cells were washed again and 25 μL of diluted compound was transferred to the cell plate, incubated for 5 min in RT, and then […] of Carbachol/high K+ (10 μM carbachol and 20 mM KCl final concentration) buffer added to stimulate the cells and open the Kir3.1/Kir3.4 channel. After 10 min stimulation, […] of the supernatant was transferred to a new microplate, 45 μL washing buffer added to the supernatant and the level of Rb in the supernatant was then measured using an Aurora ICR 8000. Compounds were studied at concentrations ranging from 0.003 to 67 μmol/L (dilutions by three, 10-pt CR) or from 0.037 to 27 μmol/L (dilutions by three, 7-pt CR).
Stock solutions of compounds were prepared in DMSO 10 mM and stored at RT. Buffers used for AAS contained (in mM): HEPES 20, NaCl 150, MgCl2 1.0, CaCl2 2.0 and NaH2PO4 0.8 and Glucose 10 (wash 1) or KCl 5 and Glucose 5 (wash 2) or KCl 5 (dilution buffer). The High K^+ channel opener buffer contained (in mM): HEPES 20, NaCl 130, MgCl2 1.0, CaCl2 2.0 and NaH2PO4 0.8 together with KCl 20. Solutions used for Q-Patch (extracellular) in mM: NaCl 145, KCl 4, CaCl2 2.0, MgCl2 1.0, HEPES 10 and glucose 10. The high K^+ extra cellular solution used for Q-Patch in mM: NaCl 96.7, KCl 50.7, CaCl2 2.0, MgCl2 1.0, HEPES 10 and glucose 10 while the intra cellular solution used was (in mM): KCl 120, CaCl2 5.374, MgCl2 1.75, EGTA 10, KOH 3.125, HEPES 10, Na2ATP 4.
Results are given as mean IC50 of >4 replicates (10-pt CR, AAS) or >3 replicates (7-pt CR, AAS). Some of the data in Table 1 are mean values of two or more runs. […]

[1] = 10-pt CR (0.003 to 67 μmol/L), AAS Rb efflux, CHO-K1 cells expressing hKir3.1/Kir3.4, mean of >4 replicates, read-out: IKACh IC50 10-pt CR, AAS
[2] = 7-pt CR (0.037 to 27 μmol/L), AAS Rb efflux, CHO-K1 cells expressing hKir3.1/Kir3.4, mean of >3 replicates, read-out: IKACh IC50 7-pt CR, AAS

Row | IC50 [1] [µM] | Structure (SMILES) | also measured
1 | 1.4 | CN(C(=O)c1ccccc1)[C@H](CN1CC(O)C1)C1CCC1 [Example 39.7, (S)—N-(1-Cyclobutyl-2-(3-hydroxyazetidin-1-yl)ethyl)-N-methylbenzamide] | –
2 | 12 | CC[C@H](C)[C@@H](CN1CC(O)C1)N(C)C(=O)c1ccc(C#N)cc1 [Example 29.5, 4-Cyano-N-((2S,3S)-1-(3-hydroxyazetidin-1-yl)-3-methylpentan-2-yl)-N-methylbenzamide] | –
3 | 1.9 | Cc1cc(C(=O)N(C)[C@H](CN2C[C@H](O)[C@@H](O)C2)C(C)C)ccc1Cl [Example 8.13, 4-Chloro-N-((S)-1-((3S,4S)-3,4-dihydroxypyrrolidin-1-yl)-3-methylbutan-2-yl)-N,3-dimethylbenzamide] | –
4 | 18 | CCN(C(=O)c1ccc(F)c(C)c1)[C@H](CN1CCCC1)C(C)C [Example 15.2, (S)-N-Ethyl-4-fluoro-3-methyl-N-(3-methyl-1-(pyrrolidin-1-yl)butan-2-yl)benzamide] | –
5 | 0.16 | CN(C(=O)c1ccc(F)c(Cl)c1)C(CN1CC(O)C1)C1CCCC1 (single isomer, unassigned) [32.7, isomer 2] | –
6 | 8.5 | Cc1ccc(C(=O)N(C)[C@@H](C)CN2CC(O)C2)cc1C [Example 40.2, (S)—N-(1-(3-Hydroxyazetidin-1-yl)propan-2-yl)-N,3,4-trimethylbenzamide] | –
7 | 11 | CC(C)[C@@H](CN1CCCC1)N(C(=O)c1ccc(Cl)cc1)C1CCCC1 [Example 20, (S)-4-Chloro-N-cyclopentyl-N-(3-methyl-1-(pyrrolidin-1-yl)butan-2-yl)benzamide] | –

Second part, the compound before the results:

Row | Structure (SMILES) | IC50 [1] [µM] | also measured
8 | CCN(C(=O)c1ccc(Br)cc1)[C@H](CN1CCCC1)C(C)C [Example 15.1, (S)-4-Bromo-N-ethyl-N-(3-methyl-1-(pyrrolidin-1-yl)butan-2-yl)benzamide] | 11 | –
9 | CC(C)[C@@H](CCN1CCCC1)N(C)C(=O)c1ccc(Cl)cc1F [4-Chloro-2-fluoro-N-methyl-N-[(1R)-2-methyl-1-(2-pyrrolidin-1-ylethyl)propyl]benzamide] | – | IC50 (printed as IC50 >67 μM in the 10-pt CR assay or IC50 >27 μM in the 7-pt CR assay, assay format per compound not stated, read-out: IC50): > 27 µM
10 | CC(C)[C@@H](CN1CC(C)(O)C1)N(C)C(=O)c1ccc(Cl)cc1 [Example 9.7, (S)-4-Chloro-N-(1-(3-hydroxy-3-methylazetidin-1-yl)-3-methyl-butan-2-yl)-N-methylbenzamide] | 8.6 | –
11 | CC(C)[C@@H](CN1CCCCC1)N(C)C(=O)c1ccc(Br)c(F)c1 [Example 16.36, (S)-4-Bromo-3-fluoro-N-methyl-N-(3-methyl-1-(piperidin-1-yl)butan-2-yl)benzamide] | – | IC50 [2]: 11 µM
12 | Cc1cccc(C(=O)N(C)[C@H](CN2CCCC2)C2CC2)c1 [Example 3.17, (S)-N-(1-Cyclopropyl-2-(pyrrolidin-1-yl)ethyl)-N,3-dimethyl-benzamide] | 9.3 | –
13 | CCC[C@@H](CN1CC[C@H](O)C1)N(C)C(=O)c1ccc(C#N)cc1 [Example 46.1, 4-Cyano-N-((S)-1-((S)-3-hydroxypyrrolidin-1-yl)pentan-2-yl)-N-methylbenzamide] | 8 | –
14 | CC(C)[C@@H](CN1CC[C@H](O)C1)N(C)C(=O)c1ccc(OC(F)(F)F)cc1 [Example 16.41, N-[(1S)-1-{[(3S)-3-Hydroxypyrrolidin-1-yl]methyl}-2-methylpropyl]-N-methyl-4-(trifluoromethoxy)benzamide] | – | IC50 [2]: 6.8 µM
15 | CCC[C@@H](CN1CC(OC)C1)N(C)C(=O)c1ccc(Cl)cc1 [Example 31.2, (S)-4-Chloro-N-(1-(3-methoxyazetidin-1-yl)pentan-2-yl)-N-methylbenzamide] | 5.9 | –
16 | CC(C)C[C@@H](CN1CC(O)C1)N(C)C(=O)c1cccc(C(F)F)c1 [Example 38.4, 3-(Difluoromethyl)-N-[(2S)-1-(3-hydroxyazetidin-1-yl)-4-methylpentan-2-yl]-N-methylbenzamide] | 0.77 | –
17 | CC(C)[C@@H](CN1CC(F)C1)N(C)C(=O)c1ccc(Cl)cc1 [Example 1.6, (S)-4-Chloro-N-(1-(3-fluoroazetidin-1-yl)-3-methylbutan-2-yl)-N-methylbenzamide] | 6.7 | –
18 | CO[C@H](C)[C@@H](CN1CCCC1)N(C)C(=O)c1ccc(F)c(Cl)c1 [Example 3.3, 3-Chloro-4-fluoro-N-((2R,3R)-3-methoxy-1-(pyrrolidin-1-yl)butan-2-yl)-N-methylbenzamide] | 7.2 | –
19 | COCCN(C(=O)c1ccc(Br)cc1)[C@H](CN1CCCC1)C(C)C [Example 15.5, (S)-4-Bromo-N-(2-methoxyethyl)-N-(3-methyl-1-(pyrrolidin-1-yl)butan-2-yl)benzamide] | 2.3 | –
20 | CN(C(=O)c1ccc(Cl)cc1)C(CN1CC(O)C1)C1CCCC1 (single isomer, unassigned) [32.3, isomer 1] | 0.055 | –
21 | CN(C(=O)c1ccccc1)[C@H](CN1CC(O)C1)C1CCCCC1 [Example 36.8, N-[(1S)-1-Cyclohexyl-2-(3-hydroxyazetidin-1-yl)ethyl]-N-methylbenzamide] | 1.1 | –
22 | CCC[C@@H](CN1C[C@H](O)[C@H]1C)N(C)C(=O)c1ccc(F)cc1 (relative stereo) [Example 43.2, 4-Fluoro-N—((S)-1-((2R*,3S*)-3-hydroxy-2-methylazetidin-1-yl)pentan-2-yl)-N-methylbenzamide] | 9.1 | –
23 | CCC[C@@H](CN1CCC(O)CC1)N(C)C(=O)c1ccc(Cl)cc1 [Example 44, (S)-4-Chloro-N-(1-(4-hydroxypiperidin-1-yl)pentan-2-yl)-N-methylbenzamide] | 0.81 | –
